Assay results published in US4442044A, “Process for preparing monoesters and diesters of N-alkyl substituted amino methyl phosphonic acid” (priority 1983, dated 1984).

Key:
Assay in all cases: post-emergent herbicidal activity, greenhouse
Assay type in all cases: in vivo
Canada Thistle = details: Table I
Outline: (§1)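 Post-emergence foliar spray at tabulated application rates, using aliquots of a 1.0% stock in acetone, THF or water plus ~0.4% emulsifier, applied to 2–3-week-old greenhouse plants. Plant injury was rated relative to controls roughly two and four weeks after treatment.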

Yellow Nutsedge = details: Table I
Outline: as §1

Quackgrass = details: Table I
Outline: as §1

Lambsquarters = tested on: Lambsquarters
Outline: as §1

Sorghum = details: Table II
Outline: as §1

Wheat = details: Table II
Outline: as §1

Sugar Beet = details: Table II
Outline: as §1

Soybean = details: Table II
Outline: as §1

Rice = details: Table II
Outline: as §1

Cocklebur = tested on: Cocklebur
Outline: as §1

Wild Buckwheat = details: Table II
Outline: as §1

Velvetleaf = tested on: Velvetleaf
Outline: as §1

Panicum Spp = details: Table II
Outline: as §1

Morningglory = tested on: Morningglory
Outline: as §1

Downy Brome = tested on: Downy Brome
Outline: as §1

Smartweed = tested on: Smartweed
Outline: as §1

Crabgrass = details: Table II
Outline: as §1

Johnsongrass = details: Table I
Outline: as §1

Hemp Sesbania = details: Table II
Outline: as §1

Barnyardgrass = tested on: Barnyardgrass
Outline: as §1

Compound: CCOC(=O)CNCP(=O)(OCC(=O)OCC)OCC(=O)OCC [Example 13, glycine, N-[bis(ethoxycarbonylmethoxy)phosphinylmethyl]-, ethyl ester]
- post-emergent herbicidal activity index (Canada Thistle; 2 WAT, 5.6 kg/h): 0 (0-24% control)
- post-emergent herbicidal activity index (Canada Thistle; 2 WAT, 11.2 kg/h): 0 (0-24% control)
- post-emergent herbicidal activity index (Yellow Nutsedge; 2 WAT, 5.6 kg/h): 0 (0-24% control)
- post-emergent herbicidal activity index (Yellow Nutsedge; 2 WAT, 11.2 kg/h): 0 (0-24% control)
- post-emergent herbicidal activity index (Quackgrass; 2 WAT, 5.6 kg/h): 1 (25-49% control)
- post-emergent herbicidal activity index (Quackgrass; 2 WAT, 11.2 kg/h): 0 (0-24% control)
- post-emergent herbicidal activity index (Lambsquarters; Table I, 2 WAT, 11.2 kg/h): 0 (0-24% control)
- post-emergent herbicidal activity index (Lambsquarters; Table II, 2 WAT, 1.12 kg/h): 0 (0-24% control)
- post-emergent herbicidal activity index (Sorghum; 2 WAT, 0.28 kg/h): 0 (0-24% control)
- post-emergent herbicidal activity index (Sorghum; 2 WAT, 1.12 kg/h): 0 (0-24% control)
- post-emergent herbicidal activity index (Sorghum; 2 WAT, 5.6 kg/h): 1 (25-49% control)
- post-emergent herbicidal activity index (Wheat; 2 WAT, 0.28 kg/h): 0 (0-24% control)
- post-emergent herbicidal activity index (Wheat; 2 WAT, 1.12 kg/h): 0 (0-24% control)
- post-emergent herbicidal activity index (Wheat; 2 WAT, 5.6 kg/h): 2 (50-74% control)
- post-emergent herbicidal activity index (Sugar Beet; 2 WAT, 0.28 kg/h): 0 (0-24% control)
- post-emergent herbicidal activity index (Sugar Beet; 2 WAT, 1.12 kg/h): 0 (0-24% control)
- post-emergent herbicidal activity index (Sugar Beet; 2 WAT, 5.6 kg/h): 0 (0-24% control)
- post-emergent herbicidal activity index (Soybean; 2 WAT, 0.28 kg/h): 0 (0-24% control)
- post-emergent herbicidal activity index (Soybean; 2 WAT, 1.12 kg/h): 0 (0-24% control)
- post-emergent herbicidal activity index (Soybean; 2 WAT, 5.6 kg/h): 1 (25-49% control)
- post-emergent herbicidal activity index (Rice; 2 WAT, 0.28 kg/h): 0 (0-24% control)
- post-emergent herbicidal activity index (Rice; 2 WAT, 1.12 kg/h): 0 (0-24% control)
- post-emergent herbicidal activity index (Rice; 2 WAT, 5.6 kg/h): 0 (0-24% control)
- post-emergent herbicidal activity index (Cocklebur; Table I, 2 WAT, 5.6 kg/h): 0 (0-24% control)
- post-emergent herbicidal activity index (Cocklebur; Table I, 2 WAT, 11.2 kg/h): 0 (0-24% control)
- post-emergent herbicidal activity index (Cocklebur; Table II, 2 WAT, 0.28 kg/h): 0 (0-24% control)
- post-emergent herbicidal activity index (Cocklebur; Table II, 2 WAT, 1.12 kg/h): 0 (0-24% control)
- post-emergent herbicidal activity index (Cocklebur; Table II, 2 WAT, 5.6 kg/h): 1 (25-49% control)
- post-emergent herbicidal activity index (Wild Buckwheat; 2 WAT, 0.28 kg/h): 0 (0-24% control)
- post-emergent herbicidal activity index (Wild Buckwheat; 2 WAT, 1.12 kg/h): 0 (0-24% control)
- post-emergent herbicidal activity index (Wild Buckwheat; 2 WAT, 5.6 kg/h): 0 (0-24% control)
- post-emergent herbicidal activity index (Velvetleaf; Table I, 2 WAT, 5.6 kg/h): 0 (0-24% control)
- post-emergent herbicidal activity index (Velvetleaf; Table I, 2 WAT, 11.2 kg/h): 0 (0-24% control)
- post-emergent herbicidal activity index (Velvetleaf; Table II, 2 WAT, 0.28 kg/h): 0 (0-24% control)
- post-emergent herbicidal activity index (Velvetleaf; Table II, 2 WAT, 1.12 kg/h): 0 (0-24% control)
- post-emergent herbicidal activity index (Velvetleaf; Table II, 2 WAT, 5.6 kg/h): 1 (25-49% control)
- post-emergent herbicidal activity index (Panicum Spp; 2 WAT, 0.28 kg/h): 0 (0-24% control)
- post-emergent herbicidal activity index (Panicum Spp; 2 WAT, 1.12 kg/h): 0 (0-24% control)
- post-emergent herbicidal activity index (Panicum Spp; 2 WAT, 5.6 kg/h): 0 (0-24% control)
- post-emergent herbicidal activity index (Morningglory; Table I, 2 WAT, 5.6 kg/h): 0 (0-24% control)
- post-emergent herbicidal activity index (Morningglory; Table I, 2 WAT, 11.2 kg/h): 1 (25-49% control)
- post-emergent herbicidal activity index (Morningglory; Table II, 2 WAT, 0.28 kg/h): 0 (0-24% control)
- post-emergent herbicidal activity index (Morningglory; Table II, 2 WAT, 1.12 kg/h): 0 (0-24% control)
- post-emergent herbicidal activity index (Morningglory; Table II, 2 WAT, 5.6 kg/h): 1 (25-49% control)
- post-emergent herbicidal activity index (Downy Brome; Table I, 2 WAT, 5.6 kg/h): 0 (0-24% control)
- post-emergent herbicidal activity index (Downy Brome; Table I, 2 WAT, 11.2 kg/h): 0 (0-24% control)
- post-emergent herbicidal activity index (Downy Brome; Table II, 2 WAT, 0.28 kg/h): 0 (0-24% control)
- post-emergent herbicidal activity index (Downy Brome; Table II, 2 WAT, 1.12 kg/h): 0 (0-24% control)
- post-emergent herbicidal activity index (Downy Brome; Table II, 2 WAT, 5.6 kg/h): 0 (0-24% control)
- post-emergent herbicidal activity index (Smartweed; Table I, 2 WAT, 5.6 kg/h): 0 (0-24% control)
- post-emergent herbicidal activity index (Smartweed; Table I, 2 WAT, 11.2 kg/h): 0 (0-24% control)
- post-emergent herbicidal activity index (Smartweed; Table II, 2 WAT, 0.28 kg/h): 0 (0-24% control)
- post-emergent herbicidal activity index (Smartweed; Table II, 2 WAT, 1.12 kg/h): 0 (0-24% control)
- post-emergent herbicidal activity index (Smartweed; Table II, 2 WAT, 5.6 kg/h): 1 (25-49% control)
- post-emergent herbicidal activity index (Crabgrass; 2 WAT, 0.28 kg/h): 0 (0-24% control)
- post-emergent herbicidal activity index (Crabgrass; 2 WAT, 1.12 kg/h): 0 (0-24% control)
- post-emergent herbicidal activity index (Crabgrass; 2 WAT, 5.6 kg/h): 3 (75-99% control)
- post-emergent herbicidal activity index (Johnsongrass; 2 WAT, 5.6 kg/h): 0 (0-24% control)
- post-emergent herbicidal activity index (Johnsongrass; 2 WAT, 11.2 kg/h): 0 (0-24% control)
- post-emergent herbicidal activity index (Hemp Sesbania; 2 WAT, 0.28 kg/h): 0 (0-24% control)
- post-emergent herbicidal activity index (Hemp Sesbania; 2 WAT, 1.12 kg/h): 1 (25-49% control)
- post-emergent herbicidal activity index (Barnyardgrass; Table I, 2 WAT, 5.6 kg/h): 0 (0-24% control)
- post-emergent herbicidal activity index (Barnyardgrass; Table I, 2 WAT, 11.2 kg/h): 0 (0-24% control)
- post-emergent herbicidal activity index (Barnyardgrass; Table II, 2 WAT, 0.28 kg/h): 0 (0-24% control)
- post-emergent herbicidal activity index (Barnyardgrass; Table II, 2 WAT, 1.12 kg/h): 0 (0-24% control)
- post-emergent herbicidal activity index (Barnyardgrass; Table II, 2 WAT, 5.6 kg/h): 1 (25-49% control)

Compound: CCOC(=O)CNCP(=O)(OC(C)CC(=O)OCC)OC(C)CC(=O)OCC (stereo not drawn) [Example 15, butanoic acid, 3,3'-[[[[(2-ethoxy-2-oxoethyl]amino]methyl]phospinylidene]bis-(oxy)]bis-, diethyl ester]
- post-emergent herbicidal activity index (Canada Thistle; 2 WAT, 5.6 kg/h): 0 (0-24% control)
- post-emergent herbicidal activity index (Canada Thistle; 4 WAT, 11.2 kg/h): 0 (0-24% control)
- post-emergent herbicidal activity index (Yellow Nutsedge; 2 WAT, 5.6 kg/h): 0 (0-24% control)
- post-emergent herbicidal activity index (Yellow Nutsedge; 4 WAT, 11.2 kg/h): 1 (25-49% control)
- post-emergent herbicidal activity index (Quackgrass; 2 WAT, 5.6 kg/h): 0 (0-24% control)
- post-emergent herbicidal activity index (Quackgrass; 4 WAT, 11.2 kg/h): 1 (25-49% control)
- post-emergent herbicidal activity index (Lambsquarters; Table I, 2 WAT, 5.6 kg/h): 0 (0-24% control)
- post-emergent herbicidal activity index (Lambsquarters; Table I, 4 WAT, 11.2 kg/h): 0 (0-24% control)
- post-emergent herbicidal activity index (Lambsquarters; Table II, 2 WAT, 1.12 kg/h): 0 (0-24% control)
- post-emergent herbicidal activity index (Lambsquarters; Table II, 4 WAT, 5.6 kg/h): 1 (25-49% control)
- post-emergent herbicidal activity index (Sorghum; 2 WAT, 1.12 kg/h): 0 (0-24% control)
- post-emergent herbicidal activity index (Sorghum; 4 WAT, 5.6 kg/h): 0 (0-24% control)
- post-emergent herbicidal activity index (Wheat; 2 WAT, 1.12 kg/h): 0 (0-24% control)
- post-emergent herbicidal activity index (Wheat; 4 WAT, 5.6 kg/h): 1 (25-49% control)
- post-emergent herbicidal activity index (Sugar Beet; 2 WAT, 1.12 kg/h): 0 (0-24% control)
- post-emergent herbicidal activity index (Sugar Beet; 4 WAT, 5.6 kg/h): 0 (0-24% control)
- post-emergent herbicidal activity index (Soybean; 2 WAT, 1.12 kg/h): 0 (0-24% control)
- post-emergent herbicidal activity index (Soybean; 4 WAT, 5.6 kg/h): 1 (25-49% control)
- post-emergent herbicidal activity index (Rice; 2 WAT, 1.12 kg/h): 0 (0-24% control)
- post-emergent herbicidal activity index (Rice; 4 WAT, 5.6 kg/h): 0 (0-24% control)
- post-emergent herbicidal activity index (Cocklebur; Table I, 2 WAT, 5.6 kg/h): 0 (0-24% control)
- post-emergent herbicidal activity index (Cocklebur; Table I, 4 WAT, 11.2 kg/h): 1 (25-49% control)
- post-emergent herbicidal activity index (Cocklebur; Table II, 2 WAT, 1.12 kg/h): 0 (0-24% control)
- post-emergent herbicidal activity index (Cocklebur; Table II, 4 WAT, 5.6 kg/h): 0 (0-24% control)
- post-emergent herbicidal activity index (Wild Buckwheat; 2 WAT, 1.12 kg/h): 0 (0-24% control)
- post-emergent herbicidal activity index (Wild Buckwheat; 4 WAT, 5.6 kg/h): 0 (0-24% control)
- post-emergent herbicidal activity index (Velvetleaf; Table I, 2 WAT, 5.6 kg/h): 0 (0-24% control)
- post-emergent herbicidal activity index (Velvetleaf; Table I, 4 WAT, 11.2 kg/h): 0 (0-24% control)
- post-emergent herbicidal activity index (Velvetleaf; Table II, 2 WAT, 1.12 kg/h): 0 (0-24% control)
- post-emergent herbicidal activity index (Velvetleaf; Table II, 4 WAT, 5.6 kg/h): 0 (0-24% control)
- post-emergent herbicidal activity index (Panicum Spp; 2 WAT, 1.12 kg/h): 0 (0-24% control)
- post-emergent herbicidal activity index (Panicum Spp; 4 WAT, 5.6 kg/h): 1 (25-49% control)
- post-emergent herbicidal activity index (Morningglory; Table I, 2 WAT, 5.6 kg/h): 0 (0-24% control)
- post-emergent herbicidal activity index (Morningglory; Table I, 4 WAT, 11.2 kg/h): 1 (25-49% control)
- post-emergent herbicidal activity index (Morningglory; Table II, 2 WAT, 1.12 kg/h): 0 (0-24% control)
- post-emergent herbicidal activity index (Morningglory; Table II, 4 WAT, 5.6 kg/h): 1 (25-49% control)
- post-emergent herbicidal activity index (Downy Brome; Table I, 2 WAT, 5.6 kg/h): 0 (0-24% control)
- post-emergent herbicidal activity index (Downy Brome; Table I, 4 WAT, 11.2 kg/h): 0 (0-24% control)
- post-emergent herbicidal activity index (Downy Brome; Table II, 2 WAT, 1.12 kg/h): 0 (0-24% control)
- post-emergent herbicidal activity index (Downy Brome; Table II, 4 WAT, 5.6 kg/h): 0 (0-24% control)
- post-emergent herbicidal activity index (Smartweed; Table I, 2 WAT, 5.6 kg/h): 0 (0-24% control)
- post-emergent herbicidal activity index (Smartweed; Table I, 4 WAT, 11.2 kg/h): 0 (0-24% control)
- post-emergent herbicidal activity index (Smartweed; Table II, 2 WAT, 1.12 kg/h): 0 (0-24% control)
- post-emergent herbicidal activity index (Smartweed; Table II, 4 WAT, 5.6 kg/h): 0 (0-24% control)
- post-emergent herbicidal activity index (Crabgrass; 2 WAT, 1.12 kg/h): 0 (0-24% control)
- post-emergent herbicidal activity index (Crabgrass; 4 WAT, 5.6 kg/h): 2 (50-74% control)
- post-emergent herbicidal activity index (Johnsongrass; 2 WAT, 5.6 kg/h): 0 (0-24% control)
- post-emergent herbicidal activity index (Johnsongrass; 4 WAT, 11.2 kg/h): 0 (0-24% control)
- post-emergent herbicidal activity index (Hemp Sesbania; 2 WAT, 1.12 kg/h): 0 (0-24% control)
- post-emergent herbicidal activity index (Hemp Sesbania; 4 WAT, 5.6 kg/h): 0 (0-24% control)
- post-emergent herbicidal activity index (Barnyardgrass; Table I, 2 WAT, 5.6 kg/h): 0 (0-24% control)
- post-emergent herbicidal activity index (Barnyardgrass; Table I, 4 WAT, 11.2 kg/h): 3 (75-99% control)
- post-emergent herbicidal activity index (Barnyardgrass; Table II, 2 WAT, 1.12 kg/h): 0 (0-24% control)
- post-emergent herbicidal activity index (Barnyardgrass; Table II, 4 WAT, 5.6 kg/h): 0 (0-24% control)
